Source: patent US20110098180A1, “Herbicide-Resistant Plants, And Polynucleotides And Methods For Providing Same” (United States Department of Agriculture, priority 2002, published 2011)

Assays:
[1] = target: Hydrilla PDS Arg^304 → Threonine (Hydrilla verticillata, UniProt Q66PY0, R304T); assay: Cross resistance to bleaching herbicides, in vitro PDS inhibition, non-His-tagged (Table 2); type: biochemical; conditions: Threonine at 304; construct in frame with LacZalpha-ccdB, non-His-tagged; read-out: I50
Sequence of Hydrilla PDS Arg^304 → Threonine (Hydrilla verticillata, UniProt Q66PY0, R304T) (Q66PY0 1-580 R304T): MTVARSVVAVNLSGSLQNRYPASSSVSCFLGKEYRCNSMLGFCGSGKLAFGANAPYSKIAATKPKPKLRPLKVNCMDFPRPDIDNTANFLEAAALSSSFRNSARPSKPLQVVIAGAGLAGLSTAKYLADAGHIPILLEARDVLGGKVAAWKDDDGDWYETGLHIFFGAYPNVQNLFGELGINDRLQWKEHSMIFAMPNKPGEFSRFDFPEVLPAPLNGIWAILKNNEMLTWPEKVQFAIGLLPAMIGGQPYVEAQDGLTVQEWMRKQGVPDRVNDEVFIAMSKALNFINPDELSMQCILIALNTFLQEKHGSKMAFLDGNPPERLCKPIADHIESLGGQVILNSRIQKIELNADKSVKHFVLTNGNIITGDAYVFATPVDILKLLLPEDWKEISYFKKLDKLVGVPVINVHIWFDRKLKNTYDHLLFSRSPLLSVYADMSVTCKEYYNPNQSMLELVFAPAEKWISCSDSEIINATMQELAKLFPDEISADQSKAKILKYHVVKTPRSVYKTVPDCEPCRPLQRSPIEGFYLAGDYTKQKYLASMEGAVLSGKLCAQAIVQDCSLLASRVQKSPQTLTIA
Procedure: (§1) The expression constructs in Table 2 were derived from an original clone of the susceptible PDS gene from Hydrilla and then the Arg^304 was mutated to the listed amino acid. Expression was under the control of the lac promoter but in frame with the initiation codon of the LacZalpha-ccdB gene in the pCR4-TOPO vector (Invitrogen Inc., CA, Cat. #K4575-01).
(§2) All mutagenesis was performed, unless stated otherwise, using the TOPO-vector containing the wildtype (H4) PDS-sequence, which was extracted from an overnight culture with the Qiagen Plasmid Prep Kit as described above. The amount of the extracted plasmid was diluted to 10 ng/μl and used as template in a mutagenesis-procedure using the QuikChange Site-directed Mutagenesis Kit (Stratagene, Calif., #200518). The design of the mutagenesis-primers was conducted according to the manufacturers protocol to enable the specific change of Arg^304-codon to code for the desired amino acid. Primers (purchased from MWG-Biotech) and their introduced amino acid change are listed below with the changed codon underlined:
(§3) The reactions were performed according to the manufacturers protocol. Reactions were set up in MicroAmp-tubes on ice with 38 μl ddH2O, 5 μl 10× reaction buffer, 2 μl plasmid (10 ng/μl), 1.25 μl forward-mutagenesis primer (100 ng/μl), 1.25 μl of reverse mutagenesis primer (100 ng/μl), 1 μl dNTP-mix and 1 μl PfuTurboDNA polymerase (2.5 U/μl). The reactions were placed in a PE 9700 thermal cycler and heated to 95° C. for 30 sec followed by 12 rounds at 95° C. for 30 sec, 55° C. for 1 min and 68° C. for 12 min. The PCR was followed by a DpnI-digestion and transformation in XL1-Blue supercompetent cells as described in the manual. 4-6 resulting colonies were grown overnight in LB-medium with kanamycin and plasmid DNA was isolated as described above. The plasmid was used as template for sequencing with M13 and internal PDS-primers as described above on a LiCOR-system. Sequences were assembled and analyzed using Seqman. Introduced mutations were identified and plasmids carrying the desired mutation(s) were transferred into competent TOP10-cells, using the transformation protocol from the TOPO TA Cloning Kit. Resulting colonies were grown overnight in Wu-broth with kanamycin, aliquoted and stored at −80° C. until further use. 1 ml of Wu-cultures was used to start 1-L LB-cultures with kanamycin as described before, to express active PDS-enzyme for testing as described.
(§4) Phytoene desaturase activity and its inhibition by herbicides was determined using an in vitro system using components derived from the in vivo production of phytoene and phytoene desaturase proteins. All mutations described in Examples 3 and 4 were tested. […] The clones were used for the heterologous expression of Hydrilla-PDS-enzyme. In particular, bacterial cultures were grown from single colonies overnight in Wu-broth (6.27 g/L K2HPO4, 1.8 g/L KH2PO4, 0.5 g/L Na-citrate, 0.9 g/L (NH4)2SO4, 10 g/L tryptone, 5 g/L yeast extract, 10 g/L NaCl, 44 ml/L glycerol, 0.1 mM MgSO4, pH 7.2) with kanamycin. 1-mL was aliquoted in centrifuge tube and stored at −80° C. For expression, 1 L LB-medium with kanamycin was inoculated with 1-mL Wu-culture and grown for 24 h at 37° C. to stationary phase with shaking at 200 rpm. The cells were collected by centrifugation at 2000×g. All of the following steps were done at 4° C. unless otherwise noted. Active soluble PDS enzyme was extracted by lysing the transformed E. coli cells using a French Press at 20,000 psi in assay buffer consisting of 100 mM Tris-HCl, pH 7.2, 10 mM magnesium-chloride, 0.1 mM NADP, 0.1 mM FAD, 10 mM cysteine, 5 mM DTT, 1 mM aminocaproic acid, and 1 μg/ml leupeptin. The soluble fraction containing PDS activity was obtained by centrifugation for 10 min at 1200×g. After 24 h they were centrifuged down and used in PDS enzyme activity assays as described below.

[2] = system: Hydrilla PDS Arg^304 → Threonine; assay: as above; type: biochemical, Hydrilla verticillata; conditions: Threonine at 304 relative to Arginine; Table 2
Procedure: as §1, §2, §3, §4

| Compound | IC50 [1] [µM] | R/S [2] |
| --- | --- | --- |
| CCC(Oc1ccc(F)c(C(F)(F)F)c1)C(=O)NCc1ccccc1 (stereo not shown) [Beflubutamid] | 1.2 | 0.3 |
| O=C(Nc1ccc(F)cc1F)c1cccnc1Oc1cccc(C(F)(F)F)c1 [Diflufenican] | 1 | 0.2 |
| O=C1C(Cl)C(CCl)CN1c1cccc(C(F)(F)F)c1 (stereo not shown) [Fluorochloridone] | 52 | 4.3 |
| CNC1=C(c2cccc(C(F)(F)F)c2)C(=O)C(c2ccccc2)O1 (stereo not shown) [Flurtamone] | 8.1 | 2.9 |
| CNc1cnn(-c2cccc(C(F)(F)F)c2)c(=O)c1Cl [Norflurazon] | 161 | 52.0 |
| O=C(Nc1ccc(F)cc1)c1cccc(Oc2cccc(C(F)(F)F)c2)n1 [Piconilafen, Picolinafen] | 2.7 | 0.5 |
| Fluridone | – | 10.0 |
